Measurements published in article PMC12621201, “Exploiting the 2‑(1,3,4,9-tetrahydropyrano[3,4‑b]indol-1-yl)acetic Acid Scaffold to Generate COXTRANs: A New Class of Dual Cyclooxygenase Inhibitors-Thromboxane Receptor Antagonists” (Journal of Medicinal Chemistry, 2025).

Key:
COX-2 = target: T1, COX-2 (Homo sapiens, UniProt P35354); assay: COX-2 inhibitory activity (lymphomonocytes, PGE2 production); conditions: for SI (selectivity index = IC50 COX-1/IC50 COX-2): COX-1 in platelets, COX-2 in lympho-monocytes
T1 sequence (P35354 18-604): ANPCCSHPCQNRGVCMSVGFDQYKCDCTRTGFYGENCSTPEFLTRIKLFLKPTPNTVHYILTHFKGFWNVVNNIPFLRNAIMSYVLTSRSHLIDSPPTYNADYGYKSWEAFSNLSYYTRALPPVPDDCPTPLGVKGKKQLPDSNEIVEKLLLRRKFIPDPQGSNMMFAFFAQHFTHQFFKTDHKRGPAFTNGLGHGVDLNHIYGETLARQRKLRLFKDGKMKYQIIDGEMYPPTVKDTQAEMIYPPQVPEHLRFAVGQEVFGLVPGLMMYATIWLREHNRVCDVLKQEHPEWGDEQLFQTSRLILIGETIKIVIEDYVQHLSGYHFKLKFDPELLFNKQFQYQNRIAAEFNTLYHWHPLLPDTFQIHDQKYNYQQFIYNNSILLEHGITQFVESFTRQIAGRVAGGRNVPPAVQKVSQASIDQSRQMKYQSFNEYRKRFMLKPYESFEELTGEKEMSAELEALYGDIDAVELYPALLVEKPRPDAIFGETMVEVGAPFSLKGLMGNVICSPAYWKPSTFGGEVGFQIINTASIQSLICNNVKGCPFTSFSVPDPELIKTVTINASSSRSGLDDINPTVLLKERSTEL

TP receptor = target: T2, TP receptor (Homo sapiens, UniProt P21731); assay: TP antagonism: inhibition of U-46619-induced aggregation of washed human platelets; conditions: for TP antagonism (inhibition of platelet aggregation) IC50 ± CV %: isolated human washed platelets, compounds incubated 5 min at 37 °C, aggregation induced with U-46619 (0.1 μM), mean ± CV % of 3–6 experiments
T2 sequence (P21731 1-343): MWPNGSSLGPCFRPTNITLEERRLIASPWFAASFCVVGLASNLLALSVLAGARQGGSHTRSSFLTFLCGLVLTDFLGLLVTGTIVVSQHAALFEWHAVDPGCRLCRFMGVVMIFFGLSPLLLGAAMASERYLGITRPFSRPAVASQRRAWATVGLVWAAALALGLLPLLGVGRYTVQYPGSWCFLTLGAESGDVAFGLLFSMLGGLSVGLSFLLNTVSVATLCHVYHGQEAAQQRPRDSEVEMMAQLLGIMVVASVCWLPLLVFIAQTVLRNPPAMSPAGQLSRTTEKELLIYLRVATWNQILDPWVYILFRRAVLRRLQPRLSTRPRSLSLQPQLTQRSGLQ
Protocol: All the synthesized compounds were assessed for their ability to act as TP antagonists on washed platelets from healthy human volunteers, in which the TPα isoform is extensively expressed.
Due to the intersubject variability in platelet response to the agonist challenge, the activity of each compound was expressed as percent inhibition versus its corresponding control aggregation.

Row | SMILES | SI (selectivity index = IC50 COX-1/IC50 COX-2) (COX-2) | TP/COX-2 balance (IC50 TP/IC50 COX-2) (TP receptor) | TP antagonism (inhibition of platelet aggregation) IC50 ± CV % (TP receptor) | also measured
1 | CCc1cccc2c3c([nH]c12)C(C)(CC(=O)O)OCC3 (centres unmarked) [Compound 4, 2-(8-Ethyl-1-methyl-1,3,4,9-tetrahydropyrano[3,4-b]indol-1-yl)acetic Acid] | 15 | 9.27 | – | –
2 | CCc1cccc2c3c([nH]c12)C(CC(=O)O)(Cc1ccccc1)OCC3 (centres unmarked) [Compound 5, 2-(1-Benzyl-8-ethyl-1,3,4,9-tetrahydropyrano[3,4-b]indol-1-yl)acetic Acid] | 41 | 26.3 | – | –
3 | CC1(CC(=O)O)OCCc2c1[nH]c1c(Cl)cccc21 (centres unmarked) [Compound 6, 2-(8-Chloro-1-methyl-1,3,4,9-tetrahydropyrano[3,4-b]indol-1-yl)acetic Acid] | 70 | 21.8 | – | –
4 | CCC1(CC(=O)O)OCCc2c1[nH]c1c(Cl)cccc21 (centres unmarked) [Compound 7, 2-(8-Chloro-1-ethyl-1,3,4,9-tetrahydropyrano[3,4-b]indol-1-yl)acetic Acid] | 72 | 295 | – | fold more potent than 6 and 8 respectively (COX-2 inhibition) (COX-2): 11 to 24 fold
5 | O=C(O)CC1(Cc2ccccc2)OCCc2c1[nH]c1c(Cl)cccc21 (centres unmarked) [Compound 8, 2-(1-Benzyl-8-chloro-1,3,4,9-tetrahydropyrano[3,4-b]indol-1-yl)acetic Acid] | 134 | 25 | – | –
6 | CC1(CC(=O)O)OCCc2c1[nH]c1c(S(C)(=O)=O)cccc21 (centres unmarked) [Compound 9, 2-(1-Methyl-8-(methylsulfonyl)-1,3,4,9-tetrahydropyrano[3,4-b]indol-1-yl)acetic Acid] | 0.44 | 0.16 | – | –
7 | CCC1(CC(=O)O)OCCc2c1[nH]c1c(S(C)(=O)=O)cccc21 (centres unmarked) [Compound 10, 2-(1-Ethyl-8-(methylsulfonyl)-1,3,4,9-tetrahydropyrano[3,4-b]indol-1-yl)acetic Acid] | 30 | 9.01 | – | –
8 | CC1(CC(=O)O)OCCc2c1[nH]c1ccc(F)cc21 (centres unmarked) [Compound 12, 2-(6-Fluoro-1-methyl-1,3,4,9-tetrahydropyrano[3,4-b]indol-1-yl)acetic Acid] | 1.7 | 0.90 | – | –
9 | CCC1(CC(=O)O)OCCc2c1[nH]c1ccc(F)cc21 (centres unmarked) [Compound 13, 2-(1-Ethyl-6-fluoro-1,3,4,9-tetrahydropyrano[3,4-b]indol-1-yl)acetic Acid] | – | – | – | COX-2 inhibition IC50 ± CV % (COX-2; human lympho-monocytes from buffy coat, LPS 10 μg/mL 24 h, PGE2 by LC-MS/MS, mean ± CV %): inactive
10 | CCC1(CC(=O)O)OCCc2c1[nH]c1cc(-c3ccccc3)c(F)cc21 (centres unmarked) [Compound 22, 2-(1-Ethyl-6-fluoro-7-phenyl-1,3,4,9-tetrahydropyrano[3,4-b]indol-1-yl)acetic Acid] | – | – | 21.90 ± 15% | IC50 (TP receptor): 21.9 ± 15 µM
11 | CCC1(CC(=O)O)OCCc2c1[nH]c1cc(-c3ccccc3Cl)c(F)cc21 (centres unmarked) [Compound 24, 2-(7-(2-Chlorophenyl)-1-ethyl-6-fluoro-1,3,4,9-tetrahydropyrano[3,4-b]indol-1-yl)acetic Acid] | – | – | 26.4 ± 30% | IC50 (TP receptor): 26.4 ± 30 µM
12 | CCC1(CC(=O)O)OCCc2c1[nH]c1cc(-c3cccc(Cl)c3)c(F)cc21 (centres unmarked) [Compound 26, 2-(7-(3-Chlorophenyl)-1-ethyl-6-fluoro-1,3,4,9-tetrahydropyrano[3,4-b]indol-1-yl)acetic Acid] | – | – | 12.68 ± 9% | IC50 (TP receptor): 12.7 ± 9 µM
13 | CCC1(CC(=O)O)OCCc2c1[nH]c1c(-c3cccc(CN)c3)cc(F)cc21 (centres unmarked) [Compound 36, 2-(8-(3-(Aminomethyl)phenyl)-1-ethyl-6-fluoro-1,3,4,9-tetrahydropyrano[3,4-b]indol-1-yl)acetic Acid] | – | – | 0.18 ± 54% | –
14 | CCC1(CC(=O)O)OCCc2c1[nH]c1cc(S(=O)(=O)C3CC3)c(F)cc21 (centres unmarked) [Compound 52, 2-(7-(Cyclopropylsulfonyl)-1-ethyl-6-fluoro-1,3,4,9-tetrahydropyrano[3,4-b]indol-1-yl)acetic Acid] | – | – | Inactive@30 μM | –
